A short description of series [1]: Total reducing power (TRP) assay. How it is done: A TRP assay was carried out to evaluate the reducing potential of synthetic compounds. The method implicates reductones. These reductones are species with antioxidant potential that is believed to be due to their proton-donating capacity. […] The maximum value of reducing power was 104.7 ± 1.9 µg/AAE for SF5, followed by 103.18 ± 2.4 µg/AAE for SF7 and 84.57 ± 1.9 µg/AAE for SF12 (Figure 3 and Figure 4 (standard curve)).
The assay is based on the reduction of Fe^+3 to Fe^+2. The method described by Khan et al. was used with slight modifications. One hundred microliters of test samples (4 mg/mL DMSO) were taken in an Eppendrof tube and 200 μL of phosphate buffer (0.2 mol/L, pH 6.6) and 250 µL of 1% potassium ferricyanide (K3Fe CN)6) were added. This was allowed to incubate at 50 °C for 20 min. Later on, 200 μL of 10% trichloroacetic acid (TCA) was added to the mixture. The mixture was centrifuged at 3000 rpm at room temperature for 10 min. After centrifugation, 150 µL of supernatant were transferred to microplate with FeCl3 (50 μL, 0.1%) and the absorbance was taken at 630 nm. The results were calculated as µg AAE/mg.

Series [2] in a line: MTT cytotoxicity against raw macrophages. Format: cell-based, albino rats. The note with it: rat; for viability at 24 h, 1 µM / viability at 24 h, 10 µM / viability at 24 h, 50 µM / viability at 24 h, 100 µM: peritoneal macrophages (raw macrophages), raw macrophages, MTT, read-out: % Cell Viability; for IC50 at 24 h: primary peritoneal macrophages, mean ± SEM, n = 3. The gist of the method:
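Peritoneal macrophages from albino rats were treated for 24 h at 37 °C, 5% CO2 with test compounds at 100, 50, 10 and 1 µM or vehicle, from DMSO stocks. MTT was then added for 2 h, formazan dissolved in DMSO and absorbance read at 570 nm. % viability = blank-corrected sample over blank-corrected control ×100.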

Another series relates to Hep-2C cells. The series is described as follows: MTT assay against Hep-2C cells. Format: cell-based, Human. The note with it: Homo sapiens, Hep2C, read-out: IC50 (Mean ± SEM) Hep-2C Cells. The method, boiled down: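 Human cervix carcinoma Hep-2C cells in DMEM with 10% FCS, seeded at 1 × 10^6 and exposed to test compounds for 24, 48 and 72 h. MTT (1 mg per mL) added for 4 h, formazan dissolved in DMSO, absorbance at 570 nm. Viability % versus untreated cells after blank subtraction.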

Another series concerns brine shrimp nauplii. In words: Brine shrimp lethality bioassay. Format: in vivo. The conditions noted are these: 24 h, n = 3. The gist of the method:
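Ten hatched nauplii per well in artificial seawater were exposed to test compounds at 400, 200, 100 and 50 µg/mL under a lamp. Survivors counted after 24 h; percentage mortality calculated; triplicate.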

A short description of series [3]: DPPH free radical scavenging assay. The note with it: mean ± SEM, n = 3; for IC50 (DPPH radical scavenging): concentration to scavenge 50% of the DPPH radicals. The gist of the method:
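Compounds at 200, 66.6, 22.2 and 7.4 µg/mL were mixed with DPPH radical, with DMSO as the negative control. Absorbance was read at 630 nm, and % scavenging was calculated as (1 − Abs/Abc) × 100 against the control.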
A general note: DPPH is a stable violet radical that fades when it is reduced.

Converted amounts (≈) assume the structure as drawn. “And” between values parts separate entries of the source, which are not always exact repeats. Identical values can stand only once. Like-named read-outs stand apart in the source and are kept apart here.

The values below come from publication PMC7321408, “One-Pot Multicomponent Synthesis and Bioevaluation of Tetrahydroquinoline Derivatives as Potential Antioxidants, α-Amylase Enzyme Inhibitors, Anti-Cancerous and Anti-Inflammatory Agents” (Molecules, 2020).

Turning to `c1ccc2c(c1)CCCN2CN1CCCCC1` [SF1, 1-(Piperidine-1-ylmethyl) 1,2,3,4-tetrahahydroquinoline], the “Total reducing power (TRP)” value in series [1] came out at 33.22 ± 1.5 µg/AAE. Moreover, the viability at 24 h, 1 µM in series [2] (albino) was 58 ± 0.76%. For the same compound, the viability at 24 h, 10 µM in series [2] (albino) worked out at 48 ± 1.34%. Moreover, in series [2] (albino), the viability at 24 h, 50 µM was found to be 47 ± 0.84%. Further, the viability at 24 h, 100 µM in series [2] (albino) was 44.7 ± 0.5%. In series [2] (albino), this compound returned an IC50 at 24 h of 6.232 ± 0.01 µM. Also, the values for the IC50 in the series on Hep-2C cells (24 h), in the series with Hep-2C cells (48 h) and in the series on Hep-2C cells (72 h) were 28 ± 1.07 µM, 21.8 ± 1.1 µM and 14.8 ± 1.07 µM, respectively. Also, the “LD50 ± SEM (brine shrimp lethality)” value with brine shrimp nauplii was 120 ± 2.3 µg/mL and 120.8 ± 2.3 µg/mL. In addition, the “% DPPH Scavenging Activity” value in series [3] (7.4 µg/mL) is listed as 11.91 ± 0.32%; in series [3] (22.22 µg/mL) it was 27.76 ± 0.11%; in series [3] (66.66 µg/mL) it was 50.08 ± 0.18%; in series [3] (200 µg/mL), 62.45 ± 0.12%. The “IC50 (DPPH radical scavenging)” value in series [3] came out at 44.22 ± 0.25 µg/mL (≈ 192 µM).

In the case of `CN1CCN(CN2CCCc3ccccc32)CC1` [SF5], the “Total reducing power (TRP)” value in series [1] was 104.7 ± 1.9 µg/AAE. In series [2] (albino), the viability at 24 h, 1 µM came to 98 ± 1.01%. Besides, in series [2] (albino), the viability at 24 h, 10 µM came out at 74 ± 0.42%. For the same compound, in series [2] (albino), the viability at 24 h, 50 µM is 67 ± 0.84%. Besides, the viability at 24 h, 100 µM in series [2] (albino) worked out at 60 ± 1.2%. The same compound yielded an IC50 at 24 h in series [2] (albino) of 6.181 ± 0.05 µM. Moreover, the IC50 in the series with Hep-2C cells (24 h) is 21.3 ± 1.09 µM; with Hep-2C cells (48 h) it was 18 ± 1.05 µM; with Hep-2C cells (72 h), 16.8 ± 1.07 µM. Besides, in the series with brine shrimp nauplii, the “LD50 ± SEM (brine shrimp lethality)” value worked out at 94 ± 1.06 µg/mL. In addition, the “% DPPH Scavenging Activity” value in series [3] (7.4 µg/mL) is recorded as 7.76 ± 0.23%; in series [3] (22.22 µg/mL), 17.39 ± 0.16%; in series [3] (66.66 µg/mL), 28.77 ± 0.14%; in series [3] (200 µg/mL) it was 45.24 ± 0.28%. Further, the “IC50 (DPPH radical scavenging)” value in series [3] was 56.63 ± 0.32 µg/mL (≈ 231 µM).

As to `c1ccc(N(CN2CCCc3ccccc32)c2ccccc2)cc1` [SF7, N-((3,4-dihydroquinolin-1(2H)-yl)methyl)-N-phenylaniline], the “Total reducing power (TRP)” value in series [1] is reported as 103.18 ± 2.4 µg/AAE. Also, the viability at 24 h, 1 µM in series [2] (albino) turned out to be 96 ± 0.89%. In series [2] (albino), the viability at 24 h, 10 µM came out at 95 ± 0.96%. In addition, the viability at 24 h, 50 µM in series [2] (albino) turned out to be 84 ± 0.77%. In series [2] (albino), the viability at 24 h, 100 µM was 58 ± 0.83%. Also, the figures for the IC50 at 24 h in series [2] (albino) and in series [2] were 18.64 ± 0.13 µM and 18.6 ± 0.13 µM, respectively. The IC50 stood at 26.7 ± 1.1 µM in the series on Hep-2C cells (24 h), 21.6 ± 1.05 µM in the series with Hep-2C cells (48 h) and 16.8 ± 1.03 µM in the series on Hep-2C cells (72 h). The “LD50 ± SEM (brine shrimp lethality)” value in the series on brine shrimp nauplii is given as 100.8 ± 1.14 µg/mL. For the same compound, the “% DPPH Scavenging Activity” value in series [3] (7.4 µg/mL) was 9.28 ± 0.13%; in series [3] (22.22 µg/mL), 26.76 ± 0.17%; in series [3] (66.66 µg/mL), 50.48 ± 0.054%; in series [3] (200 µg/mL), 64.48 ± 0.18%. Besides, the “IC50 (DPPH radical scavenging)” value in series [3] is on record as 44.4 ± 0.29 µg/mL (≈ 141 µM).

A word on the viability: it is a per cent measure of how many cells are alive, often set against a control. Usually IC50 stands for the concentration at which inhibition is half-maximal.
